Drawing on paper PMC3639963, “A New Class of Small Molecule Inhibitor of BMP Signaling” (PLoS ONE, 2013), this text covers inhibition for 2 molecules.

Holding throughout (assay): Nanosyn kinase profiling
Common to all, as to assay type: biochemical
Holding throughout (details): read-out: Percentage inhibition; for inhibition at 0.1 µM: 0.1 µM inhibitor; for inhibition at 1 µM: 1 µM inhibitor

The target of one test is T1, MEK1 (Homo sapiens, UniProt Q02750).
T1 construct: purchased Nanosyn (enzymatic panel); SGC in-house recombinant human kinases (DSF panel); Invitrogen (ALK1-6)
In short, it runs like this:
(§1)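 Percent inhibition of each kinase was measured with the inhibitor at 0.1 µM and at 1 µM, as part of a 200-kinase human selectivity panel.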

The target in another test is T2, PAK6 (Homo sapiens, UniProt Q9NQU5).
T2 construct: purchased Nanosyn (enzymatic panel); SGC in-house recombinant human kinases (DSF panel); Invitrogen (ALK1-6)
In short, it runs like this:
as §1

The next test concerns the target T3, AXL (Homo sapiens, UniProt P30530).
T3 construct: purchased Nanosyn (enzymatic panel); SGC in-house recombinant human kinases (DSF panel); Invitrogen (ALK1-6)
T3 sequence (P30530 26-894): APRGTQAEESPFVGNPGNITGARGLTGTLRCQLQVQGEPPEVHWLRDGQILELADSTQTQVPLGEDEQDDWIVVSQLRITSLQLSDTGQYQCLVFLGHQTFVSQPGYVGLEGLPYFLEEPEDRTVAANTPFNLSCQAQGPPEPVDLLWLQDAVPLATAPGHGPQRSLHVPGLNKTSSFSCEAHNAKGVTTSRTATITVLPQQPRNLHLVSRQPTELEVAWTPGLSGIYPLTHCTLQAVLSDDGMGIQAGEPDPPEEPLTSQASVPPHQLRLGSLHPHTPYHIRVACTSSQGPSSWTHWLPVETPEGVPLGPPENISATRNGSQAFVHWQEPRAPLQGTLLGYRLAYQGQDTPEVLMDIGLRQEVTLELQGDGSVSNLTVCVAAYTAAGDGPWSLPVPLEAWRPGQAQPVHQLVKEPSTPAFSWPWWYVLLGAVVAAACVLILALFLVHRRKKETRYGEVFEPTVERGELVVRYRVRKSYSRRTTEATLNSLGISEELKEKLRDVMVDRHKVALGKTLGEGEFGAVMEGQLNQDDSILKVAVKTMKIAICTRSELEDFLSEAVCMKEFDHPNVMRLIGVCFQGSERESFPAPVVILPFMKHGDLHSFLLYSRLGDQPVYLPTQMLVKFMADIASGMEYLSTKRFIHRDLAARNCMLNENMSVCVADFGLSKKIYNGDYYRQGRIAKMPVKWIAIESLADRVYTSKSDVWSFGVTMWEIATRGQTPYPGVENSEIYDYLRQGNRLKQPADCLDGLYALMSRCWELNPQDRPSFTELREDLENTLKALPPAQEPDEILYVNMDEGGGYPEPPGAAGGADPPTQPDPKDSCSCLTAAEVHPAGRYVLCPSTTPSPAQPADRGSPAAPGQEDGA
The essentials: as §1

A further test deals with T4, CK1γ2 (Homo sapiens, UniProt P78368).
T4 construct: purchased Nanosyn (enzymatic panel); SGC in-house recombinant human kinases (DSF panel); Invitrogen (ALK1-6)
In short, it runs like this: as §1

A further test addresses T5, MRCKα (Homo sapiens, UniProt Q5VT25).
T5 construct: purchased Nanosyn (enzymatic panel); SGC in-house recombinant human kinases (DSF panel); Invitrogen (ALK1-6)
The essentials: as §1

The next test concerns the target T6, PTK5 (Homo sapiens, UniProt P42685).
T6 construct: purchased Nanosyn (enzymatic panel); SGC in-house recombinant human kinases (DSF panel); Invitrogen (ALK1-6)
The essentials:
as §1

The next test addresses T7, TYRO3 (Homo sapiens, UniProt Q06418).
T7 construct: purchased Nanosyn (enzymatic panel); SGC in-house recombinant human kinases (DSF panel); Invitrogen (ALK1-6)
T7 sequence (Q06418 41-890): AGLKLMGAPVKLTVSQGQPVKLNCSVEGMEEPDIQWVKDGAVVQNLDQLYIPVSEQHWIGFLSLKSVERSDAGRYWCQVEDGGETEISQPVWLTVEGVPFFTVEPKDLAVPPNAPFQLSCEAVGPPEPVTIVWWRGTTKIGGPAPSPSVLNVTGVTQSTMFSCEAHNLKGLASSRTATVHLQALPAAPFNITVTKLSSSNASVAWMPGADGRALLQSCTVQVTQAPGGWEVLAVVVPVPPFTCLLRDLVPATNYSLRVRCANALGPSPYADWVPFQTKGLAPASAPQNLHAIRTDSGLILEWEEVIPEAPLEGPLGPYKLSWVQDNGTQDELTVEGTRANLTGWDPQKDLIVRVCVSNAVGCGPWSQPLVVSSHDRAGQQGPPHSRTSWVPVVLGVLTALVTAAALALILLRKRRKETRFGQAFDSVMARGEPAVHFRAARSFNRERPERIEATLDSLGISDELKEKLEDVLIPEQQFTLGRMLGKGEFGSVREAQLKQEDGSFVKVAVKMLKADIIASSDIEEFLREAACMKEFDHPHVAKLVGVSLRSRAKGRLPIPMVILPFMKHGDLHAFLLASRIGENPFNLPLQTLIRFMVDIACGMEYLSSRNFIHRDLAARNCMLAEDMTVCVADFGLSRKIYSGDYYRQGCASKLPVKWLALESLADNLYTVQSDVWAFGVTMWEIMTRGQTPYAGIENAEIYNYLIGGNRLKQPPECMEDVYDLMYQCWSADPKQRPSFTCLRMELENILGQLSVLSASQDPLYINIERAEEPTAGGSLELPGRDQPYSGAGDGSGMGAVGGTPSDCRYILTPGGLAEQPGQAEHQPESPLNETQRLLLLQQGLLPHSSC
In short, it runs like this:
as §1

T1 sequence (Q02750 whole entry): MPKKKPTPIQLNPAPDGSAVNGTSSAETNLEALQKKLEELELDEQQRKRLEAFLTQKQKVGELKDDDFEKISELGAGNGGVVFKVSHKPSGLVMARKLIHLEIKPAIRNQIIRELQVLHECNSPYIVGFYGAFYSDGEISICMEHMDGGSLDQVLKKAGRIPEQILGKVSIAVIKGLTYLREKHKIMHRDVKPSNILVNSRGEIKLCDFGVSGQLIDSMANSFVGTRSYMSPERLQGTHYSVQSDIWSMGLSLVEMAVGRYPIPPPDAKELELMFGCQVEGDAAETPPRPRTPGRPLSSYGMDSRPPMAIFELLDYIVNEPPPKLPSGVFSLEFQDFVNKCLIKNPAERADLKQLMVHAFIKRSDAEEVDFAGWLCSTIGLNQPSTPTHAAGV
T4 sequence (P78368 whole entry): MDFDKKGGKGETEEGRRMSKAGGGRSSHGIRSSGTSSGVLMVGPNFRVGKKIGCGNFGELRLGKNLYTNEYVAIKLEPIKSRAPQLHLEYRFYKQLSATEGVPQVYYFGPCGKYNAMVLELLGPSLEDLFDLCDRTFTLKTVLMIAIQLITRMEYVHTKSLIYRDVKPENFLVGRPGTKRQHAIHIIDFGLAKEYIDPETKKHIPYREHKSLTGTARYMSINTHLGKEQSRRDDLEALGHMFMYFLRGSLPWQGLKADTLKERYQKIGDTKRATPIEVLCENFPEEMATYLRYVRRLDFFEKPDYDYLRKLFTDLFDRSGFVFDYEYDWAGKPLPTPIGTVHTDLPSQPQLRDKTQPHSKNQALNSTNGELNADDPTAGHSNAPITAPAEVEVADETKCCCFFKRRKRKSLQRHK
T6 sequence (P42685 whole entry): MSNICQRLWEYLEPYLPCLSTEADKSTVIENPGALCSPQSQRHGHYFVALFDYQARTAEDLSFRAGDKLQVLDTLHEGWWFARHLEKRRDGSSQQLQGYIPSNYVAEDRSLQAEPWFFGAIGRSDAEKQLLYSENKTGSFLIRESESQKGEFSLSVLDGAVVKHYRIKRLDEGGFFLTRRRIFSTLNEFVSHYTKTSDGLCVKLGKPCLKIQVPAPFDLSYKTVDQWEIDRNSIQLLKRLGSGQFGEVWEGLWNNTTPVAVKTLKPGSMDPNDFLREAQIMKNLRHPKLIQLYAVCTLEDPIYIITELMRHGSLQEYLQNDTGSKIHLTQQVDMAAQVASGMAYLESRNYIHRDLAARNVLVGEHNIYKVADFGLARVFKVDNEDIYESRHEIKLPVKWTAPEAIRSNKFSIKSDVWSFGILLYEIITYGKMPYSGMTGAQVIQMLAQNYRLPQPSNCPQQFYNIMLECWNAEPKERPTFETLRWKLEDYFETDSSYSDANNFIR
T5 sequence (Q5VT25 whole entry): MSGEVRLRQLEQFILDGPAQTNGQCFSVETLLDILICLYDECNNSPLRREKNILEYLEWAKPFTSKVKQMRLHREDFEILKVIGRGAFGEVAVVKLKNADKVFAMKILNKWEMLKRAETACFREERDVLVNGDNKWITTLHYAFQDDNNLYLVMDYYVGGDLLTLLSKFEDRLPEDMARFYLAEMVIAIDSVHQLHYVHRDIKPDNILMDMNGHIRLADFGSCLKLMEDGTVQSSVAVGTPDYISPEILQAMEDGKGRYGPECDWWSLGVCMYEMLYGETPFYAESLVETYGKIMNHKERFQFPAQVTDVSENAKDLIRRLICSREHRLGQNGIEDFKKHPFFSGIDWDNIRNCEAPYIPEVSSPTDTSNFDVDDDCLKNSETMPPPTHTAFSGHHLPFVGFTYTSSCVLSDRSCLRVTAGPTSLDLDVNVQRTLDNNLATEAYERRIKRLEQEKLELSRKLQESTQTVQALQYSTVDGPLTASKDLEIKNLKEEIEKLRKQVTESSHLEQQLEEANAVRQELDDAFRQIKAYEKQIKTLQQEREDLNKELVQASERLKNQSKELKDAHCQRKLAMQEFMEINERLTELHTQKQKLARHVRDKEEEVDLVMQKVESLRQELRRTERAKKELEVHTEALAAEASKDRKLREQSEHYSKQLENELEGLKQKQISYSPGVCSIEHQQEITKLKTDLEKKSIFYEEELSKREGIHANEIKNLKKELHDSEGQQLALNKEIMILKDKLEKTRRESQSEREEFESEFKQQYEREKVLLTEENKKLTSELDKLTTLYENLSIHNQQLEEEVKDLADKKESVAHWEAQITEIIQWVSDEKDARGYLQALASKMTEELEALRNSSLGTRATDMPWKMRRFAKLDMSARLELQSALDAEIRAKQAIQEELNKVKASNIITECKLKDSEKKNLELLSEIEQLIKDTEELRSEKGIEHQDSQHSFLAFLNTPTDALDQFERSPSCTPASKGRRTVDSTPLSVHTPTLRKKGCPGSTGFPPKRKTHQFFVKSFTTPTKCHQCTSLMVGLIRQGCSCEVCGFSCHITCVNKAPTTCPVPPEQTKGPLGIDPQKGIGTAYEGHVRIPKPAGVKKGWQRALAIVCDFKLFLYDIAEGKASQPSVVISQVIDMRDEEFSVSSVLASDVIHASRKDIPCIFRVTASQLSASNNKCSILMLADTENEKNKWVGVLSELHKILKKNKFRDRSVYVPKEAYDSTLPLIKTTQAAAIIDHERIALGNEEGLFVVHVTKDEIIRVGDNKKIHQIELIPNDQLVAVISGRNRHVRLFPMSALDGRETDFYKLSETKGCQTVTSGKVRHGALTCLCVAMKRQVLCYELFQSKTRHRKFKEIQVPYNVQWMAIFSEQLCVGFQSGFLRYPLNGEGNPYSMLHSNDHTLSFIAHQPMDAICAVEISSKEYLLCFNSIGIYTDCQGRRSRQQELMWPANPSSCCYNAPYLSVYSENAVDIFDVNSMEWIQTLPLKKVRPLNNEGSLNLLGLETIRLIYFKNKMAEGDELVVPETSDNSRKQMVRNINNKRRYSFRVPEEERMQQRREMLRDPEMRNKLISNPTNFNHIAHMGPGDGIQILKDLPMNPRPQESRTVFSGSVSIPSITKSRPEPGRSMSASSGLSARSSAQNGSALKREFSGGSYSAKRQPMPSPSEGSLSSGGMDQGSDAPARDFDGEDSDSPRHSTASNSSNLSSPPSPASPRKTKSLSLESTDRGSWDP
T2 sequence (Q9NQU5 whole entry): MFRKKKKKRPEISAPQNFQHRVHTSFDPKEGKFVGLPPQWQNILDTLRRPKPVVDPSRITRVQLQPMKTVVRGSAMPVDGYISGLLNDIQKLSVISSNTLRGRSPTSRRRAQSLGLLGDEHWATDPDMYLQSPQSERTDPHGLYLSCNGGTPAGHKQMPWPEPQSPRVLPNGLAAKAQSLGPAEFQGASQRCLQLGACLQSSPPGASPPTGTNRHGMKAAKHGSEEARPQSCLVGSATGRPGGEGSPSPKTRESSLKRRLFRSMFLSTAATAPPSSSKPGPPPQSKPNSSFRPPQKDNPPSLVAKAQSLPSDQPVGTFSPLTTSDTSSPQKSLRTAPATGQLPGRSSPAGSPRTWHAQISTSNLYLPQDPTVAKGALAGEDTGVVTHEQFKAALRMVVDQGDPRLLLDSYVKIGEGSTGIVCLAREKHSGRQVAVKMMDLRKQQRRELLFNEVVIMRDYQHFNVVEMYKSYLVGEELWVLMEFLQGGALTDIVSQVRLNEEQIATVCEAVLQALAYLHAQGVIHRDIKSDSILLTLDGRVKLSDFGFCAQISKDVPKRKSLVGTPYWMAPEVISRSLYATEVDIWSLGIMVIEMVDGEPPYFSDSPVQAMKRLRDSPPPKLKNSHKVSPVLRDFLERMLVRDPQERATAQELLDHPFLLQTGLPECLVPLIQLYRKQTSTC

As usually defined, the inhibition is the change of the read-out against control, counted positive when it falls. Take `c1ccc2c(-c3cnn4cc(-c5ccc(N6CCNCC6)cc5)cnc34)ccnc2c1` [LDN-193189]: the inhibition at 0.1 µM at MEK1 was 1.4%; at PAK6, 8.8%; on AXL, -4%; on CK1γ2, 1.6%; on MRCKα, 0.8%; on PTK5, 4.1%. Besides, the inhibition at 0.1 µM on TYRO3 came out at 13%. Moreover, the inhibition at 1 µM on MEK1 amounted to 1%; on PAK6, 5.1%; on AXL, 1.1%; at CK1γ2 it was 3.9%; on MRCKα it was 6.8%; on PTK5 it was 14%. Besides, at TYRO3, the inhibition at 1 µM worked out at 58%.

As to `COc1cc(-c2cc(-c3cccc(O)c3)cnc2N)cc(OC)c1OC` [K02288, 3-[6-amino-5-(3,4,5-trimethoxy-phenyl)-pyridin-3-yl]-phenol], the inhibition at 0.1 µM on MEK1 was -1%; at PAK6 it was 0.8%; at AXL it was 0.9%; at CK1γ2, -1%; on MRCKα, 2%; on PTK5, 2.2%. Moreover, the inhibition at 0.1 µM on TYRO3 worked out at 1.8%. Further, the inhibition at 1 µM at MEK1 turned out to be 10%; at PAK6, 1.9%; on AXL, 1.5%; on CK1γ2, 5.5%; at MRCKα it was 6.9%; on PTK5, 22%. For the same molecule, the inhibition at 1 µM on TYRO3 was 19%.
